The record followed here is patent publication US9597407B2, “Targeted antimicrobial moieties” (C3 Jian, Inc., priority 2009, dated 2017).

Test [1] relates to microorganisms. Briefly: Morphology, biofilm and growth disruption by peptides (Table 5). Type of test: cell-based. Also noted: key: A: Peptide aggregates; B: Less hyphal formation; Clumps; Diffuse clumps and small polyps; F: Diffuse growth; H: Thin; I: Growth inhibition; Microcolony formation; Rippled; Small polyps; Thick; W: Halo formation on top, microlonies on bottom. From the text: In certain embodiments peptides that induce alterations in phenotype or other biological activities can also be used as antimicrobial effector moieties.

The test system of test [2] is bacteria. Kind of test: Binding of targeting peptides to microorganisms (Table 3). The settings on record: preferably 1x PBS.
The mark [3] stands for this setting: microorganism the targeting peptide binds, binding in aqueous buffers that varied with peptide solubility.
The mark [4] stands for this setting: microorganism bound by the targeting peptide, binding in aqueous buffers chosen by peptide solubility.

“Also recorded” adds a separate entry of the source.

On to “PF-009 (chain 1 SKKYNHILNQENR; chain 2 SKKYNHILNQENR; Peptide with targeting and/or antimicrobial activity)”, for which the “Organism, effect” value in test [1] (S. epidermidis) is reported as “S. epidermidis (S)”. The “Target(s)” value in test [2] (setting [3]) was “M. luteus; also recorded: P. mirabilis; also recorded: C. albicans”.

As to “PF-010 (chain 1 MDIDVNKLLQAFVYFKSFEKLRHNNS; chain 2 MDIDVNKLLQAFVYFKSFEKLRHNNS; Peptide with targeting and/or antimicrobial activity)”, the “Organism, effect” value was “C. jeikeium (A)” in test [1] (C. jeikeium), “M. luteus (A)” in test [1] (M. luteus), “MRSA (R)” in test [1] (MRSA) and “S. epidermidis (S)” in test [1] (S. epidermidis). Besides, the “Target(s)” value in test [2] (setting [3]) is listed as “S. epidermidis; also recorded: M. luteus; also recorded: E. coli; also recorded: C. albicans”.

As for “PF-065 (LEKNTRDNYFIHAIDRIYINTSKGLFPESELVAWG; Peptide with targeting and/or antimicrobial activity)”, the “Organism, effect” value in test [1] (C. jeikeium) is reported as “C. jeikeium (A)”; in test [1] (MRSA), “MRSA (R)”; in test [1] (S. epidermidis) it was “S. epidermidis (D)”. The “Target(s)” value in test [2] (setting [3]) is “M. luteus and E. coli and P. aeruginosa and C. albicans and MRSA and S. pneumoniae and C. jeikeium and C. jejuni”.

In the case of “PF-069 (FDPVPLKKDKSASKHSHKHNH; Peptide with targeting and/or antimicrobial activity)”, the “Organism, effect” value was “B. subtilis (D)” in test [1] (B. subtilis) and “C. jejuni (R)” in test [1] (C. jejuni). The “Target(s)” value in test [2] (setting [3]) is recorded as “E. faecalis; also recorded: C. jejuni”.

In the case of “PF-070 (SMVKSEIVDLLNGEDNDD; Peptide with targeting and/or antimicrobial activity)”, the “Organism, effect” value in test [1] (B. subtilis) was “B. subtilis (D)”. For the same substance, in test [2] (setting [3]), the “Target(s)” value is “S. epidermidis; also recorded: C. jejuni”.

“PF-074 (RDIHPIYFMTKD; Peptide with targeting and/or antimicrobial activity)”: the results for the “Organism, effect” value in test [1] (MRSA) and in test [1] (S. epidermidis) were “MRSA (M)” and “S. epidermidis (D)”, respectively. Besides, the “Target(s)” value in test [2] (setting [4]) is “S. epidermidis and M. luteus and MRSA”.

In the case of “PF-099 (EIIAYLEGRFANA; Peptide with targeting and/or antimicrobial activity)”, the “Organism, effect” value was “C. jeikeium (C)” in test [1] (C. jeikeium) and “S. epidermidis (D)” in test [1] (S. epidermidis). Moreover, the “Target(s)” value in test [2] (setting [4]) is on record as “S. epidermidis; also recorded: M. luteus; also recorded: E. coli; also recorded: C. jeikeium”.

Turning to “PF-123 (TTRPQVAEDRQLDDALKETFPASDPISP; Peptide with targeting and/or antimicrobial activity)”, the “Organism, effect” value in test [1] (S. epidermidis) is given as “S. epidermidis (M)”. In addition, the “Target(s)” value in test [2] (setting [4]) is “M. luteus; also recorded: E. coli”.

In the case of “PF-128 (GIKVVAARFEEIQFSENFDSIILA; Peptide with targeting and/or antimicrobial activity)”, the figures for the “Organism, effect” value in test [1] (P. aeruginosa) and in test [1] (S. epidermidis) were “P. aeruginosa (C)” and “S. epidermidis (D)”, respectively. For the same substance, in test [2] (setting [4]), the “Target(s)” value is recorded as “M. luteus; also recorded: P. aeruginosa; also recorded: E. faecalis”.

On to “PF-129 (MKLLARDPWVCAWNDIW; Peptide with targeting and/or antimicrobial activity)”, for which the results for the “Organism, effect” value in test [1] (C. jeikeium) and in test [1] (S. epidermidis) were “C. jeikeium (R)” and “S. epidermidis (M)”, respectively. Further, in test [2] (setting [4]), the “Target(s)” value is “S. epidermidis and MRSA and E. faecalis and C. jeikeium and C. jejuni”.

In the case of “PF-133 (GDPTAGQKPVECP; Peptide with targeting and/or antimicrobial activity)”, the “Organism, effect” value in test [1] (C. jeikeium) is given as “C. jeikeium (R)”. For the same substance, the “Target(s)” value in test [2] (setting [4]) is recorded as “S. epidermidis; also recorded: C. jeikeium; also recorded: C. jejuni; also recorded: M. smegmatis”.

Turning to “PF-135 (PPARPARIPQTPTLHGASLFRQRS; Peptide with targeting and/or antimicrobial activity)”, the “Organism, effect” value in test [1] (C. jeikeium) was “C. jeikeium (R)”. Further, in test [2] (setting [4]), the “Target(s)” value was “S. epidermidis and M. luteus and E. coli and P. aeruginosa and MRSA and C. jeikeium and M. smegmatis”.

For “PF-144 (RSGQPVGRPSRRAWLR; Peptide with targeting and/or antimicrobial activity)”, the “Organism, effect” value in test [1] (S. pneumoniae) was “S. pneumoniae (H)”. Besides, the “Target(s)” value in test [2] (setting [4]) was “S. epidermidis and M. luteus and E. coli and C. albicans and MRSA and S. pneumoniae and E. faecalis and C. jeikeium”.

For “PF-149 (GKVSVLTRVPRSLGGAPANQ; Peptide with targeting and/or antimicrobial activity)”, in test [1] (MRSA), the “Organism, effect” value is reported as “MRSA (H)”. Also, the “Target(s)” value in test [2] (setting [4]) was “S. epidermidis and M. luteus and E. coli and MRSA and C. jeikeium”.

For “PF-153 (GILARADCSQIA; Peptide with targeting and/or antimicrobial activity)”, the “Organism, effect” value in test [1] (C. jeikeium) is recorded as “C. jeikeium (C)”; in test [1] (S. epidermidis) it was “S. epidermidis (M)”. In test [2] (setting [4]), the “Target(s)” value is “M. luteus and P. mirabilis and E. coli and MRSA”.

Regarding “PF-156 (LITAEQPATAPIAGK; Peptide with targeting and/or antimicrobial activity)”, the “Organism, effect” value in test [1] (MRSA) was “MRSA (H)”. In test [2] (setting [4]), the “Target(s)” value was “S. epidermidis; also recorded: C. jeikeium”.

For “PF-164 (EEVSRALAGIGLGLGCRIG; Peptide with targeting and/or antimicrobial activity)”, the “Organism, effect” value in test [1] (C. jeikeium) is “C. jeikeium (R)”. For the same substance, in test [2] (setting [4]), the “Target(s)” value is given as “S. epidermidis; also recorded: M. luteus; also recorded: E. coli; also recorded: C. jeikeium”.

Take “PF-171 (TQVTLCRTW; Peptide with targeting and/or antimicrobial activity)”: the “Organism, effect” value in test [1] (B. subtilis) is “B. subtilis (D)”; in test [1] (C. jejuni) it was “C. jejuni (R)”; in test [1] (M. luteus), “M. luteus (R)”; in test [1] (MRSA) it was “MRSA (M)”; in test [1] (S. epidermidis) it was “S. epidermidis (R)”; in test [1] (S. pneumoniae), “S. pneumoniae (D)”. Also, the “Target(s)” value in test [2] (setting [4]) is recorded as “S. epidermidis; also recorded: E. coli; also recorded: P. aeruginosa; also recorded: S. pneumoniae”.

For “PF-173 (AGRTAIVQGGG; Peptide with targeting and/or antimicrobial activity)”, the “Organism, effect” value in test [1] (C. jeikeium) is “C. jeikeium (D)”; in test [1] (S. epidermidis), “S. epidermidis (A)”. Besides, in test [2] (setting [4]), the “Target(s)” value is “S. epidermidis; also recorded: M. luteus; also recorded: P. mirabilis; also recorded: E. coli; also recorded: P. aeruginosa; also recorded: C. albicans; also recorded: C. jeikeium; also recorded: C. jejuni”.

For “PF-175 (RRRPAGQRPEKASQAMIAA; Peptide with targeting and/or antimicrobial activity)”, the “Organism, effect” value in test [1] (B. subtilis) is on record as “B. subtilis (D)”; in test [1] (C. albicans) it was “C. albicans (B)”; in test [1] (C. jejuni), “C. jejuni (M)”; in test [1] (M. luteus), “M. luteus (S)”; in test [1] (S. pneumoniae) it was “S. pneumoniae (A)”. For the same substance, in test [2] (setting [4]), the “Target(s)” value is reported as “S. epidermidis; also recorded: E. faecalis”.

For the substance “PF-176 (RLTSNQFLTRITPFVFAQH; Peptide with targeting and/or antimicrobial activity)”, the entries for the “Organism, effect” value in test [1] (C. jeikeium), in test [1] (M. luteus) and in test [1] (S. epidermidis) were “C. jeikeium (D)”, “M. luteus (C)” and “S. epidermidis (C)”, respectively. Also, the “Target(s)” value in test [2] (setting [4]) is “S. epidermidis and M. luteus and P. mirabilis and E. coli and C. albicans and MRSA and E. faecalis and C. jeikeium”.

Regarding “PF-180 (SGLGDLGFSSEAK; Peptide with targeting and/or antimicrobial activity)”, in test [1] (S. epidermidis), the “Organism, effect” value was “S. epidermidis (C)”. Also, in test [2] (setting [4]), the “Target(s)” value was “S. epidermidis and M. luteus and P. aeruginosa and C. albicans and MRSA and E. faecalis and C. jejuni and M. smegmatis”.

As for “PF-186 (DADKNLSLERDRFAWRVAAP; Peptide with targeting and/or antimicrobial activity)”, the “Organism, effect” value is given as “C. jeikeium (A)” in test [1] (C. jeikeium) and “S. epidermidis (C)” in test [1] (S. epidermidis). In addition, the “Target(s)” value in test [2] (setting [4]) was “S. epidermidis and M. luteus and E. coli and P. aeruginosa and MRSA and C. jeikeium”.

For “PF-188 (ARTFAGRLGTRYFGGLMRSTKA; Peptide with targeting and/or antimicrobial activity)”, the “Organism, effect” value in test [1] (C. jeikeium) is listed as “C. jeikeium (H)”. Besides, the “Target(s)” value in test [2] (setting [4]) was “S. epidermidis and M. luteus and E. coli and C. albicans and MRSA and E. faecalis”.

As for “PF-191 (QFCNFAWLFLASNNAQVSALA; Peptide with targeting and/or antimicrobial activity)”, the “Organism, effect” value was “C. jeikeium (R)” in test [1] (C. jeikeium), “MRSA (H)” in test [1] (MRSA) and “S. epidermidis (A)” in test [1] (S. epidermidis). For the same substance, the “Target(s)” value in test [2] (setting [4]) is on record as “E. coli; also recorded: P. aeruginosa; also recorded: C. jejuni”.

Take “PF-192 (VEEDEAPPPHY; Peptide with targeting and/or antimicrobial activity)”: in test [1] (S. epidermidis), the “Organism, effect” value is “S. epidermidis (D)”. Further, the “Target(s)” value in test [2] (setting [4]) is on record as “S. epidermidis; also recorded: M. luteus; also recorded: P. aeruginosa; also recorded: C. albicans; also recorded: E. faecalis; also recorded: C. jeikeium”.

As for “PF-204 (ALQKQDMNLPSVKNQLVFLKSTG; Peptide with targeting and/or antimicrobial activity)”, the “Organism, effect” value is “C. jeikeium (D)” in test [1] (C. jeikeium), “M. luteus (C)” in test [1] (M. luteus), “P. aeruginosa (H)” in test [1] (P. aeruginosa) and “S. epidermidis (C)” in test [1] (S. epidermidis). In test [2] (setting [4]), the “Target(s)” value is recorded as “S. epidermidis; also recorded: P. mirabilis; also recorded: E. coli; also recorded: P. aeruginosa; also recorded: C. albicans; also recorded: C. jejuni”.

For “PF-208 (DAYHCHLVRSPDAHDLSMRIGFV; Peptide with targeting and/or antimicrobial activity)”, the “Organism, effect” value in test [1] (C. jeikeium) is given as “C. jeikeium (A)”; in test [1] (S. epidermidis) it was “S. epidermidis (D)”. In test [2] (setting [4]), the “Target(s)” value is “S. epidermidis and C. albicans and MRSA and S. pneumoniae and E. faecalis and C. jeikeium and C. jejuni”.
